Source: ChEMBL document CHEMBL1135332, “Synthesis and cytotoxic activity of pyridazino[1',6':1,2]pyrido[3,4-b]indol-5-inium derivatives as anti-cancer agents” (Bioorg Med Chem Lett, 2002)
pIC50: −log10 of the molar value.

How the values were obtained:
L1210 [1] = assay: Inhibitory concentration required against L1210 leukemia cells; format: functional, cell-based; conditions: Mus musculus
L1210 [2] = conditions: Mus musculus
Description: Effect on L1210 cell cycle was determined and percent of treated cells in the G2M phase of L1210 leukemia cells was determined; NS implies not significant.

L1210 [3] = conditions: Mus musculus; remark: listed apart in the source
Description: Effect on L1210 cell cycle was determined and percent of treated cells in the G1 phase of L1210 leukemia cells was determined; NS implies not significant.

L1210 [4] = assay: Cytotoxic concentration against L1210 leukemia cells was determined; 30% apoptosis ([…]) was observed; format: functional, cell-based; conditions: Mus musculus
L1210 [5] = assay: Effect of compound on L1210 cell cycle was determined and percent of treated cells in the G2M phase of L1210 leukemia cells; format: functional, Mus musculus
L1210 [6] = assay: Effect on L1210 cell cycle was determined and percent of treated cells in the G1 phase of L1210 leukemia cells was determined; format: functional, Mus musculus
L1210 [7] = assay: Effect of compound on L1210 cell cycle was determined and percent of treated cells in the G2M phase of L1210 leukemia cells was determined; format: functional, Mus musculus

CCOC(=O)CCCn1c2cc(OC)ccc2c2cc[n+]3nc(CC)c(CC)cc3c21
pIC50 (L1210 [1]): 5.70
Treated cells (L1210 [2]): Not significant
Treated cells (L1210 [3]): Not significant

CCc1cc2c3[nH]c4c([N+](=O)[O-])cccc4c3cc[n+]2nc1CC
pIC50 (L1210 [1]): 5.82
Treated cells (L1210 [2]): Not significant
Treated cells (L1210 [3]): Not significant
Concentration (L1210 [4]): 5 µM

CCc1cc2c3[nH]c4ccc([N+](=O)[O-])cc4c3cc[n+]2nc1CC
pIC50 (L1210 [1]): 4.82
Treated cells (L1210 [2]): Not significant
Treated cells (L1210 [3]): Not significant

Cc1cc2c3[nH]c4cc(OCc5ccccc5)ccc4c3cc[n+]2nc1C
pIC50 (L1210 [1]): 5.28
Treated cells (L1210 [2]): Not significant
Treated cells (L1210 [3]): Not significant

COc1ccc2c3cc[n+]4nc(/C=C/[Si](C(C)C)(C(C)C)C(C)C)c(/C=C/[Si](C(C)C)(C(C)C)C(C)C)cc4c3n(C)c2c1
pIC50 (L1210 [1]): 5.64

CCc1cc2c3[nH]c4cc(OC)ccc4c3cc[n+]2nc1CC
pIC50 (L1210 [1]): 5.70
Treated cells (L1210 [5]): 35%

CCc1cc2c3[nH]c4cc(OCc5ccccc5)ccc4c3cc[n+]2nc1CC.[Br-]
pIC50 (L1210 [1]): 5.72
Treated cells (L1210 [6]): 54%

CC[C@@]1(O)C(=O)OCc2c1cc1n(c2=O)Cc2cc3ccccc3nc2-1 [CAMPTOTHECIN]
pIC50 (L1210 [1]): 7.52
Treated cells (L1210 [7]): 80%

COc1ccc2c(c1)[nH]c1c2cc[n+]2nc(C)c(C)cc12
pIC50 (L1210 [1]): 5.89
Treated cells (L1210 [5]): 38%

CCc1cc2c3[nH]c4cc(O)ccc4c3cc[n+]2nc1CC
pIC50 (L1210 [1]): 5.00
Treated cells (L1210 [2]): Not significant
Treated cells (L1210 [3]): Not significant

CCCCCn1c2cc(OC)ccc2c2cc[n+]3nc(C)c(C)cc3c21
pIC50 (L1210 [1]): 7.32
Treated cells (L1210 [6]): 57%

CCc1cc2c3c(cc[n+]2nc1CC)c1ccc(OC)cc1n3C
pIC50 (L1210 [1]): 5.96
Treated cells (L1210 [6]): 65%

CCOC(=O)Cn1c2cc(OC)ccc2c2cc[n+]3nc(C)c(C)cc3c21
pIC50 (L1210 [1]): 5.30
Treated cells (L1210 [2]): Not significant
Treated cells (L1210 [3]): Not significant

CCc1cc2c3[nH]c4c(N)cccc4c3cc[n+]2nc1CC
pIC50 (L1210 [1]): 6.00
Treated cells (L1210 [2]): Not significant
Treated cells (L1210 [3]): Not significant
Concentration (L1210 [4]): 5 µM

CCc1cc2c3[nH]c4ccc(Br)cc4c3cc[n+]2nc1CC
pIC50 (L1210 [1]): 5.64
Treated cells (L1210 [2]): Not significant
Treated cells (L1210 [3]): Not significant

CCOC(=O)Cn1c2cc(OC)ccc2c2cc[n+]3nc(CC)c(CC)cc3c21
pIC50 (L1210 [1]): 5.96
Treated cells (L1210 [7]): 46%

C#CCNC(=O)Cn1c2cc(OC)ccc2c2cc[n+]3nc(CC)c(CC)cc3c21
pIC50 (L1210 [1]): 4.14

C#CCCCn1c2cc(OC)ccc2c2cc[n+]3nc(-c4ccco4)c(-c4ccco4)cc3c21
pIC50 (L1210 [1]): 5.89
Treated cells (L1210 [6]): 54%

CCc1cc2c3c(cc[n+]2nc1CC)c1ccccc1n3CCCBr
pIC50 (L1210 [1]): 5.72
Treated cells (L1210 [2]): Not significant
Treated cells (L1210 [3]): Not significant

CCCCCn1c2cc(OC)ccc2c2cc[n+]3nc(CC)c(CC)cc3c21
pIC50 (L1210 [1]): 7.19
Treated cells (L1210 [6]): 60%

C#CCNC(=O)Cn1c2ccccc2c2cc[n+]3nc(-c4cccc5ccccc45)c(-c4cccc5ccccc45)cc3c21
pIC50 (L1210 [1]): 4.98
Treated cells (L1210 [2]): Not significant
Treated cells (L1210 [3]): Not significant

COc1cccc2c1C(=O)c1c(O)c3c(c(O)c1C2=O)C[C@@](O)(C(=O)CO)C[C@@H]3O[C@H]1C[C@H](N)[C@H](O)[C@H](C)O1 [DOXORUBICIN]
Treated cells (L1210 [7]): 81%
